For 22 compounds, IC50, elogD and Ki results are on record in US20230322715A1, “BROAD SPECTRUM ANTI-CANCER COMPOUNDS” (The Regents of the University of California, priority 2019, published 2023).

Where two headings read alike, the source gives them in different places.

One data set has as its target FTO (Homo sapiens (Human), UniProt Q9C0B1). Briefly: Fluorescence enzymatic inhibition assay (m6A7-Broccoli RNA / DFHBI-1T) against FTO. The data set is classed as biochemical. The method, then:
In order to determine their efficacy as FTO inhibitors, the compounds were screened by a fluorescence enzymatic inhibition assay developed previously by the Jaffrey lab.^44 Briefly, a nonfluorescent methylated RNA substrate termed “m6A7-Broccoli” is incubated with FTO in the presence of 2-oxoglutarate (300 μM), (NH4)2Fe(SO4)2·6H2O (300 μM), and L-ascorbate (2 mM) for 2 hours at room temperature in reaction buffer (50 mM NaHEPES, pH 6).
(§1) Inhibitors were added in concentrations ranging from 0.008-40 μM; all inhibitors were dissolved in DMSO and added to a final concentration of 0.2% DMSO. […] After incubation at room temperature for 2 hours, the plates were left at 4° C. overnight (16 hours) to allow DFHBI-1T to bind to A7-Broccoli RNA. […] Sigmoidal dose-response curves were fitted in GraphPad Prism 6. All assays were performed in triplicate, with additional repetitions added as necessary.

A further data set deals with ALKBH5 (Homo sapiens (Human), UniProt Q6P6C2). Briefly: Fluorescence enzymatic inhibition assay (m6A7-Broccoli RNA / DFHBI-1T) against ALKBH5. The data set is classed as biochemical. The method, then:
as §1

Data set [1] is described as follows: elogD / log D determination.
The target of a further data set is YTHDF1 (Homo sapiens (Human), UniProt Q9BYJ9). Briefly: In vitro FRET assay for binding affinities of YTH inhibitors, YTHDF1. The source says: (§2) FIG. 8-2 depicts possible design and synthesis of compound libraries. In Vitro FRET assay development could yield a high throughput FRET assay to determine binding affinities for potential YHT inhibitors against YTHDF1, YTHDF2, YTHDF3, or other similar proteins.
Chain of YTHDF1 (Q9BYJ9 whole entry): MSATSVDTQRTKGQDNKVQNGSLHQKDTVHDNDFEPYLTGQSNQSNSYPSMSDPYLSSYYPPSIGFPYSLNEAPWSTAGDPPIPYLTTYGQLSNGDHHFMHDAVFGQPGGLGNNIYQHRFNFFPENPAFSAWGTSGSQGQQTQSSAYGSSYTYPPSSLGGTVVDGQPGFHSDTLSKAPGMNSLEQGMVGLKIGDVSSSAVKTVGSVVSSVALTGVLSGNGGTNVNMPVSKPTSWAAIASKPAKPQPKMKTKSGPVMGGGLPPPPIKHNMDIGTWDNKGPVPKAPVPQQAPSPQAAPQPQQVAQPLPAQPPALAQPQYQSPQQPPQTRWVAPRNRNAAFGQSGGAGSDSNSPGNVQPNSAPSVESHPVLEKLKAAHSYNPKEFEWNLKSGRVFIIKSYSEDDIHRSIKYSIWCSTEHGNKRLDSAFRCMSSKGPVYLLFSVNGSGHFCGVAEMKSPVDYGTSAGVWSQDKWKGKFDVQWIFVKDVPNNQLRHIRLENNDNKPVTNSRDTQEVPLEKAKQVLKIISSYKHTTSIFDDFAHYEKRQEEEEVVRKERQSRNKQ

The target in another data set is YTHDF2 (Homo sapiens (Human), UniProt Q9Y5A9). Briefly: In vitro FRET assay for binding affinities of YTH inhibitors, YTHDF2.
Chain of YTHDF2 (Q9Y5A9 whole entry): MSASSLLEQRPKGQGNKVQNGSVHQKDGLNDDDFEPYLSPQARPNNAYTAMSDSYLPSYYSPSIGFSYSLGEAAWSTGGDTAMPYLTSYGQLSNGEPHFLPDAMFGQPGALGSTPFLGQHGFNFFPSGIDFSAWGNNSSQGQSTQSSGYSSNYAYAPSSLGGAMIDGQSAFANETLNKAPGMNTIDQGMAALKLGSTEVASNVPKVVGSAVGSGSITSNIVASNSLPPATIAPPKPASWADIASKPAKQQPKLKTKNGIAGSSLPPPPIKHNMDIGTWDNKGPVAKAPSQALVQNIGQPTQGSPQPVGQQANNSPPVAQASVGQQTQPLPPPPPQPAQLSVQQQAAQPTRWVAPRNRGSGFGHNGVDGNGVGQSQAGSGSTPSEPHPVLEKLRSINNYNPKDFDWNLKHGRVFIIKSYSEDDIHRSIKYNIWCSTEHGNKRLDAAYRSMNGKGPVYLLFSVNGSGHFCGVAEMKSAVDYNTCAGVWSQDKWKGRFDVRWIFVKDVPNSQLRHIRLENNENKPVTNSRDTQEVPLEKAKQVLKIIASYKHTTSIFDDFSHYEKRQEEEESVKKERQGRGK
Source text: as §2

Where [2] appears, read: Table 800 compounds, read-out: FTO IC50.
The mark [3] stands for this setting: Table 800 compounds, read-out: ALKBH5 IC50.
Where [4] appears, read: m6A7-Broccoli fluorescence assay, 0.250 μM FTO, inhibitor up to 40 μM, triplicate, read-out: Enzymatic IC50 FTO.
The mark [5] stands for this setting: m6A7-Broccoli fluorescence assay, 0.250 μM ALKBH5, read-out: Enzymatic IC50 ALKBH5.
[6] abbreviates: Ki values for YTH library against YTHDF2, read-out: Ki.

The IC50 is the concentration that inhibits the measured activity by half. For orientation: Ki means the equilibrium dissociation constant of an inhibitor or competing ligand from its target.

Chain of ALKBH5 (Q6P6C2 whole entry): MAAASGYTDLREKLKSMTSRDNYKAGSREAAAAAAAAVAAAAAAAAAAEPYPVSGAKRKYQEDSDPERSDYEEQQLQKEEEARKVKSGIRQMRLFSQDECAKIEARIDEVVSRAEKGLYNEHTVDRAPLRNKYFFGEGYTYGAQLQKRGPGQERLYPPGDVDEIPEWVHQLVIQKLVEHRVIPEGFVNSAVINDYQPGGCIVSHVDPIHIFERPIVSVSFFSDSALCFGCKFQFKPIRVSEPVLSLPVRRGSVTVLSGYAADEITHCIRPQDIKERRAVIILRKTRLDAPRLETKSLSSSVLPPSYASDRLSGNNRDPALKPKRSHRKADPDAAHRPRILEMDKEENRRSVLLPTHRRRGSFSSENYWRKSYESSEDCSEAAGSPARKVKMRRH
Chain of FTO (Q9C0B1 whole entry): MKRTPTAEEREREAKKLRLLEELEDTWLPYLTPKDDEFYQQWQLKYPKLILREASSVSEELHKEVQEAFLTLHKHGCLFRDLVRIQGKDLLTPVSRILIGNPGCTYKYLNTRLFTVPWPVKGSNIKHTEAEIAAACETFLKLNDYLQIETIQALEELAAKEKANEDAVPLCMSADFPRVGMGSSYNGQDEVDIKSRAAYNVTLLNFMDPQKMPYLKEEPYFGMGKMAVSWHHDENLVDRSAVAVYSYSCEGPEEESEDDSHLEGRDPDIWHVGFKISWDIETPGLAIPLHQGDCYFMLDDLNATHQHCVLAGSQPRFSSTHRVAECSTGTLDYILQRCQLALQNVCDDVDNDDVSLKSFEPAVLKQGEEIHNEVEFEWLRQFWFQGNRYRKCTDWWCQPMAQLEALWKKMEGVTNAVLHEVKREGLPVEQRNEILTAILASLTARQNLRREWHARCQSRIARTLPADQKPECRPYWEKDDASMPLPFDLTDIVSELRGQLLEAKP

Consider `O=S(=O)(Nc1cc(F)ccc1O)c1ccc(OC(F)(F)F)cc1` [TR-ALKBH5-30], for which the IC50 at FTO (setting [2]) was > 40000 nM; at ALKBH5 (setting [3]), 1000 nM. Besides, in data set [1] (Table 800 compounds), the elogD came out at 0.81.

Consider `O=S(=O)(Nc1nccnc1O)c1ccc(OC(F)(F)F)cc1` [TR-ALKBH5-31], for which the IC50 was > 40000 nM on FTO (setting [2]) and 13700 nM at ALKBH5 (setting [3]). In data set [1] (Table 800 compounds), this compound came in with an elogD of 2.33.

For `O=S(=O)(NCc1ccccn1)c1ccc(OC(F)(F)F)cc1` [TR-ALKBH5-32], the concentration for half-maximal inhibition (IC50) was > 40000 nM at FTO (setting [2]) and 2200 nM at ALKBH5 (setting [3]). For the same compound, the elogD in data set [1] (Table 800 compounds) was found to be 2.25.

For `Cc1ccc(NS(=O)(=O)c2ccc(OC(F)(F)F)cc2)cc1C` [TR-ALKBH5-34], the IC50 on FTO (setting [2]) was > 40000 nM; at ALKBH5 (setting [3]), 23300 nM. For the same compound, the elogD in data set [1] (Table 800 compounds) was found to be 0.60.

With `O=S(=O)(Nc1ccccc1N1CCCCC1)c1ccc(OC(F)(F)F)cc1` [TR-ALKBH5-36], the IC50 on FTO (setting [2]) turned out to be 23200 nM; at ALKBH5 (setting [3]) it was 400 nM. The same compound gave an elogD in data set [1] (Table 800 compounds) of 1.13.

Consider `O=S(=O)(Nc1ccc(F)c(Cl)c1)c1ccc(OC(F)(F)F)cc1` [TR-ALKBH5-38], for which the IC50 was found to be 27600 nM at FTO (setting [2]) and 1900 nM at ALKBH5 (setting [3]). This compound also showed an elogD in data set [1] (Table 800 compounds) of 2.58.

As to `O=S(=O)(Nc1cccc(O)c1)c1ccc(OC(F)(F)F)cc1` [TR-ALKBH5-39], the IC50 on FTO (setting [2]) is > 40000 nM; on ALKBH5 (setting [3]) it was 3100 nM. Besides, the elogD in data set [1] (Table 800 compounds) was found to be 1.60.

As for `CN(CCCN1c2ccccc2CCc2ccccc21)S(=O)(=O)c1ccc(OC(F)(F)F)cc1` [TR-ALKBH5-40], the results for the IC50 at FTO (setting [2]) and at ALKBH5 (setting [3]) were 59400 nM and 2300 nM, respectively. The compound also gave an elogD in data set [1] (Table 800 compounds) of 2.05.

Turning to `C[C@@H](NS(=O)(=O)c1ccc(OC(F)(F)F)cc1)c1cccnc1` [TR-ALKBH5-42], the 50% inhibitory concentration (IC50) at FTO (setting [2]) came to 285000 nM; at ALKBH5 (setting [3]) it was 250 nM. In data set [1] (Table 800 compounds), the elogD amounted to 0.83.

On to `FC(F)(F)c1cccc(CNCC2(N3CCCC3)COC2)c1` [TR-FTO-02], for which the results for the half-inhibitory concentration (IC50) on FTO (setting [4]) and on ALKBH5 (setting [5]) were 4300 nM and 19500 nM, respectively. The elogD in data set [1] was 1.02.

For `c1cc2cc(CNCC3(N4CCCC4)COC3)ccc2[nH]1` [TR-FTO-37], the IC50 on ALKBH5 (setting [5]) came to 3300 nM. For the same compound, the elogD in data set [1] came to 0.75.

Consider `c1ccc(-c2ccc(CNCC3(N4CCCC4)COC3)s2)cc1` [TR-FTO-38], for which, at ALKBH5 (setting [5]), the IC50 amounted to 3400 nM. The elogD in data set [1] is 1.57.

On to `FC(F)(F)Sc1ccc(CNCC2(N3CCCC3)COC2)cc1` [TR-FTO-40], for which the IC50 on ALKBH5 (setting [5]) was 3000 nM. This compound showed an elogD in data set [1] of 1.29.

`Fc1ccc2[nH]cc(CNCC3(N4CCC(F)C4)COC3)c2c1` (stereo not shown) [TR-FTO-45]: at ALKBH5 (setting [5]), the IC50 was determined as 30500 nM. The elogD in data set [1] came out at 1.03.

Take `FC1CCN(C2(CNCc3ccc(-c4ccccc4)o3)COC2)C1` (stereo not shown) [TR-FTO-48]: the values for the IC50 at FTO (setting [4]) and on ALKBH5 (setting [5]) were 2000 nM and 2600 nM, respectively. The same compound displayed an elogD in data set [1] of 1.34.

For the compound `COc1ccc(CNc2ccc(CNC3CC3)cn2)cc1` [TR-YTH-01], the Ki turned out to be 164 ± 21 pM on YTHDF1 (read-out: Ki (pM) YTHDF1); 164 ± 21 pM at YTHDF1 (read-out: Ki YTHDF1); 102 ± 15 pM on YTHDF2 (setting [6]); 102 ± 15 pM at YTHDF2 (read-out: Ki (pM) YTHDF2); 102 ± 15 pM on YTHDF2 (read-out: Ki YTHDF2).

On to `COc1ccc(CNc2ccc(CNC3CC3)cn2)c(OC)c1` [TR-YTH-02], for which the Ki on YTHDF1 (read-out: Ki (pM) YTHDF1) was 229 ± 57 pM; on YTHDF1 (read-out: Ki YTHDF1), 229 ± 57 pM; at YTHDF2 (setting [6]), 182 ± 69 pM; on YTHDF2 (read-out: Ki (pM) YTHDF2) it was 182 ± 69 pM; on YTHDF2 (read-out: Ki YTHDF2), 182 ± 69 pM.

With `COc1ccc(CNc2ccc(CNC3CC3)cn2)cc1OC` [TR-YTH-03], the Ki on YTHDF1 (read-out: Ki (pM) YTHDF1) is 123 ± 6 pM; at YTHDF1 (read-out: Ki YTHDF1), 123 ± 6 pM; at YTHDF2 (setting [6]), 85 ± 26 pM; at YTHDF2 (read-out: Ki (pM) YTHDF2), 85 ± 26 pM; at YTHDF2 (read-out: Ki YTHDF2), 85 ± 26 pM.

Regarding `CC(Nc1ccc(CNC2CC2)cn1)c1ccccc1` (stereo not shown) [TR-YTH-04], the Ki at YTHDF1 (read-out: Ki (pM) YTHDF1) is 129 ± 6 pM; at YTHDF1 (read-out: Ki YTHDF1), 129 ± 6 pM; on YTHDF2 (setting [6]) it was 100 ± 34 pM; on YTHDF2 (read-out: Ki (pM) YTHDF2), 100 ± 34 pM; on YTHDF2 (read-out: Ki YTHDF2), 100 ± 34 pM.

Consider `c1cncc(CNc2ccc(CNC3CC3)cn2)c1` [TR-YTH-05], for which the inhibition constant (Ki) is 90 ± 10 pM at YTHDF1 (read-out: Ki (pM) YTHDF1); 90 ± 10 pM on YTHDF1 (read-out: Ki YTHDF1); 70 ± 12 pM on YTHDF2 (setting [6]); 70 ± 12 pM on YTHDF2 (read-out: Ki (pM) YTHDF2); 70 ± 12 pM at YTHDF2 (read-out: Ki YTHDF2).

Take `Fc1ccc(CNc2ccc(CNC3CC3)cn2)cc1F` [TR-YTH-06]: the Ki on YTHDF1 (read-out: Ki (pM) YTHDF1) worked out at 285 pM; at YTHDF1 (read-out: Ki YTHDF1) it was 285 ± 154 pM; at YTHDF2 (setting [6]) it was 395 ± 51 pM; on YTHDF2 (read-out: Ki (pM) YTHDF2) it was 395 ± 51 pM; at YTHDF2 (read-out: Ki YTHDF2), 395 ± 51 pM.

As for `Fc1ccc(CNc2ccc(CNC3CC3)cn2)cc1` [TR-YTH-08], the Ki at YTHDF1 (read-out: Ki (pM) YTHDF1) and on YTHDF1 (read-out: Ki YTHDF1) was 880 ± 194 pM in each case.
